Assay results: ChEMBL document CHEMBL1154297, “Inhibitor profiling of the Pseudomonas aeruginosa virulence factor LasB using N-alpha mercaptoamide template-based inhibitors” (Bioorg Med Chem Lett, 2009); call rule not given here

Target: Elastase (Pseudomonas aeruginosa (strain ATCC 15692 / PAO1 / 1C / PRS 101 / LMG12228), UniProt P14756)
Experiment: Inhibition of Pseudomonas aeruginosa LasB by fluorimetric assay in buffer of pH 7.2

Elastase, sequence (P14756 whole entry): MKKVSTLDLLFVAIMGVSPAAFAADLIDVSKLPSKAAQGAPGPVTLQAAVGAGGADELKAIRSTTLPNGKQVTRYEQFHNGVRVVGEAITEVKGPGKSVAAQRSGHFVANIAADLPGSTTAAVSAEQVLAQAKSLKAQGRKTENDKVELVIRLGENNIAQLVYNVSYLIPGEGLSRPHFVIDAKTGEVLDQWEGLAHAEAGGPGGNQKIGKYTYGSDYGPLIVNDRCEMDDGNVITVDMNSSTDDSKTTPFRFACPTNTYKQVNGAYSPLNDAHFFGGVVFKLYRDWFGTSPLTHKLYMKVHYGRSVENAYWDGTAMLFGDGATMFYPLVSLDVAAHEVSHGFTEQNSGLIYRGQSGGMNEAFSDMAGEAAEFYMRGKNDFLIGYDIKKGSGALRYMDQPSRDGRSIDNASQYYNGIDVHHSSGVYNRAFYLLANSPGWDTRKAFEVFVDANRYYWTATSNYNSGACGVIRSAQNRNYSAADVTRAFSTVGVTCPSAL

| SMILES | Ki | Ki (read-out: Ki) [µM] |
| --- | --- | --- |
| CC(C)C[C@H](NC(=O)[C@@H](NC(=O)CS)[C@@H](C)O)C(N)=O | Not Active | – |
| NC(=O)[C@H](CC(=O)O)NC(=O)[C@H](Cc1c[nH]c2ccccc12)NC(=O)CS | – | 38 |
| CC(C)[C@H](NC(=O)[C@H](C)NC(=O)CS)C(N)=O | – | 51 |
| CSCC[C@H](NC(=O)CS)C(=O)N[C@@H](CC(C)C)C(N)=O | Not Active | – |
| NCCCC[C@H](NC(=O)[C@H](CS)NC(=O)CS)C(N)=O | – | 274 |
| CC(C)[C@H](NC(=O)[C@H](CS)NC(=O)CS)C(N)=O | – | 161 |
| NC(=O)C[C@H](NC(=O)CS)C(=O)N[C@@H](Cc1ccccc1)C(N)=O | – | 37 |
| NCCCC[C@H](NC(=O)[C@H](Cc1c[nH]cn1)NC(=O)CS)C(N)=O | – | 332 |
| NC(=O)[C@H](CC(=O)O)NC(=O)[C@H](Cc1c[nH]cn1)NC(=O)CS | Not Active | – |
| CC(C)[C@H](NC(=O)[C@H](CCCNC(=N)N)NC(=O)CS)C(N)=O | Not Active | – |
| CC(C)[C@H](NC(=O)[C@H](CCCCN)NC(=O)CS)C(N)=O | – | 555 |
| CC[C@@H](C)[C@H](NC(=O)CS)C(=O)N[C@@H](CCCCN)C(N)=O | – | 190 |
| CC[C@@H](C)[C@H](NC(=O)CS)C(=O)N[C@@H](Cc1c[nH]c2ccccc12)C(N)=O | – | 366 |
| CC[C@@H](C)[C@H](NC(=O)CS)C(=O)N[C@@H](CC(=O)O)C(N)=O | – | 142 |
| NC(=O)[C@H](Cc1ccccc1)NC(=O)[C@H](Cc1ccccc1)NC(=O)CS | – | 146 |
| CSCC[C@H](NC(=O)CS)C(=O)N[C@@H](CCCCN)C(N)=O | – | 3.9 |
| CC(C)C[C@H](NC(=O)CS)C(=O)N[C@@H](CC(=O)O)C(N)=O | – | 587 |
| CC(C)[C@H](NC(=O)[C@H](CC(=O)O)NC(=O)CS)C(N)=O | Not Active | – |
| NC(=O)[C@H](CC(=O)O)NC(=O)[C@H](CC(=O)O)NC(=O)CS | Not Active | – |
| NCCCC[C@H](NC(=O)CS)C(=O)N[C@@H](Cc1c[nH]c2ccccc12)C(N)=O | Not Active | – |
| NC(=O)[C@H](Cc1c[nH]c2ccccc12)NC(=O)[C@H](CO)NC(=O)CS | Not Active | – |
| CC(C)C[C@H](NC(=O)[C@H](CC(C)C)NC(=O)CS)C(N)=O | – | 53 |
| NCCCC[C@H](NC(=O)[C@H](Cc1c[nH]c2ccccc12)NC(=O)CS)C(N)=O | – | 10 |
| C[C@@H](O)[C@H](NC(=O)CS)C(=O)N[C@@H](CCCCN)C(N)=O | Not Active | – |
| NC(=O)[C@H](CCCN=C(N)N)NC(=O)[C@H](Cc1c[nH]c2ccccc12)NC(=O)CS | – | 25 |

| SMILES | Ki | Ki (read-out: Ki) [µM] |
| --- | --- | --- |
| N=C(N)NCCC[C@H](NC(=O)[C@H](Cc1ccccc1)NC(=O)CS)C(N)=O | Not Active | – |
| CC[C@@H](C)[C@H](NC(=O)CS)C(=O)N[C@H](C(N)=O)C(C)C | – | 1.8 |
| NC(=O)[C@H](Cc1ccccc1)NC(=O)[C@H](Cc1cnc[nH]1)NC(=O)CS | – | 21 |
| NC(=O)[C@H](Cc1c[nH]c2ccccc12)NC(=O)[C@H](Cc1cnc[nH]1)NC(=O)CS | – | 18 |
| NC(=O)[C@H](Cc1c[nH]c2ccccc12)NC(=O)[C@H](Cc1ccccc1)NC(=O)CS | – | 206 |
| CC[C@@H](C)[C@H](NC(=O)CS)C(=O)N[C@@H](CC(C)C)C(N)=O | – | 1.3 |
| C[C@H](NC(=O)CS)C(=O)N[C@@H](CCCCN)C(N)=O | – | 153 |
| C[C@H](NC(=O)CS)C(=O)N[C@@H](CCCNC(=N)N)C(N)=O | – | 115 |
| C[C@H](NC(=O)CS)C(=O)N[C@@H](Cc1ccccc1)C(N)=O | Not Active | – |
| CC(C)C[C@H](NC(=O)CS)C(=O)N[C@@H](Cc1c[nH]c2ccccc12)C(N)=O | – | 300 |
| CC(C)[C@H](NC(=O)CS)C(=O)N[C@@H](Cc1c[nH]c2ccccc12)C(N)=O | Not Active | – |
| C[C@@H](O)[C@H](NC(=O)CS)C(=O)N[C@@H](CC(=O)O)C(N)=O | Not Active | – |
| NC(=O)[C@H](Cc1ccccc1)NC(=O)[C@H](CC(=O)O)NC(=O)CS | Not Active | – |
| CC(C)[C@H](NC(=O)[C@H](Cc1c[nH]cn1)NC(=O)CS)C(N)=O | – | 47 |
| CC(C)C[C@H](NC(=O)[C@H](Cc1c[nH]cn1)NC(=O)CS)C(N)=O | – | 306 |
| N=C(N)NCCC[C@H](NC(=O)CS)C(=O)N[C@@H](CCCCN)C(N)=O | – | 135 |
| CC(C)C[C@H](NC(=O)CS)C(=O)N[C@H](C(N)=O)C(C)C | Not Active | – |
| CC(C)C[C@H](NC(=O)[C@H](CCC(=O)O)NC(=O)CS)C(N)=O | Not Active | – |
| N=C(N)NCCC[C@H](NC(=O)[C@H](CCCNC(=N)N)NC(=O)CS)C(N)=O | Not Active | – |
| CC(C)[C@H](NC(=O)CS)C(=O)N[C@@H](CC(=O)O)C(N)=O | Not Active | – |
| C[C@H](NC(=O)CS)C(=O)N[C@@H](CC(=O)O)C(N)=O | – | 316 |
| NC(=O)[C@H](Cc1c[nH]c2ccccc12)NC(=O)[C@H](Cc1c[nH]c2ccccc12)NC(=O)CS | – | 49 |
| CC(C)[C@H](NC(=O)[C@H](Cc1c[nH]c2ccccc12)NC(=O)CS)C(N)=O | – | 4.1 |
| CSCC[C@H](NC(=O)CS)C(=O)N[C@@H](Cc1c[nH]c2ccccc12)C(N)=O | – | 204 |
| C[C@H](NC(=O)CS)C(=O)N[C@@H](Cc1c[nH]c2ccccc12)C(N)=O | – | 395 |

| SMILES | Ki | Ki (read-out: Ki) [µM] |
| --- | --- | --- |
| CC(C)C[C@H](NC(=O)[C@H](C)NC(=O)CS)C(N)=O | – | 21 |
| CSCC[C@H](NC(=O)CS)C(=O)N[C@@H](CCCNC(=N)N)C(N)=O | – | 6.6 |
| CSCC[C@H](NC(=O)CS)C(=O)N[C@@H](Cc1ccccc1)C(N)=O | – | 867 |
| NC(=O)[C@H](CC(=O)O)NC(=O)[C@H](CCC(=O)O)NC(=O)CS | Not Active | – |
| CSCC[C@H](NC(=O)CS)C(=O)N[C@@H](CC(=O)O)C(N)=O | – | 7 |
| NC(=O)[C@H](CC(=O)O)NC(=O)[C@H](Cc1ccccc1)NC(=O)CS | Not Active | – |
| CC(C)C[C@H](NC(=O)CS)C(=O)N[C@@H](CCCCN)C(N)=O | – | 14 |
| CC(C)C[C@H](NC(=O)CS)C(=O)N[C@@H](CCCNC(=N)N)C(N)=O | – | 623 |
| CSCC[C@H](NC(=O)CS)C(=O)N[C@H](C(N)=O)C(C)C | – | 98 |
| NCCCC[C@H](NC(=O)[C@@H]1CCCN1C(=O)CS)C(N)=O | – | 766 |
| NC(=O)[C@H](Cc1ccccc1)NC(=O)[C@@H]1CCCN1C(=O)CS | Not Active | – |
| NC(=O)[C@H](Cc1ccccc1)NC(=O)[C@H](CCCN=C(N)N)NC(=O)CS | – | 224 |
| CC(C)[C@H](NC(=O)[C@@H]1CCCN1C(=O)CS)C(N)=O | – | 157 |
| CC(C)C[C@H](NC(=O)[C@H](CCCNC(=N)N)NC(=O)CS)C(N)=O | Not Active | – |
| CC(C)C[C@H](NC(=O)CS)C(=O)N[C@@H](Cc1ccccc1)C(N)=O | – | 113 |
| N=C(N)NCCC[C@H](NC(=O)[C@H](CCC(=O)O)NC(=O)CS)C(N)=O | Not Active | – |
| NC(=O)[C@H](Cc1c[nH]c2ccccc12)NC(=O)[C@H](CCCN=C(N)N)NC(=O)CS | – | 125 |
| NC(=O)[C@H](CC(=O)O)NC(=O)[C@H](CCCN=C(N)N)NC(=O)CS | – | 650 |
| NC(=O)[C@H](CC(=O)O)NC(=O)CNC(=O)CS | Not Active | – |
| N=C(N)NCCC[C@H](NC(=O)[C@H](CS)NC(=O)CS)C(N)=O | – | 646 |
| NCCCC[C@H](NC(=O)[C@H](CO)NC(=O)CS)C(N)=O | Not Active | – |
| NCCCC[C@H](NC(=O)[C@H](CCCCN)NC(=O)CS)C(N)=O | – | 433 |
| NC(=O)[C@H](Cc1ccccc1)NC(=O)[C@H](Cc1c[nH]c2ccccc12)NC(=O)CS | – | 1.1 |
| CC(C)C[C@H](NC(=O)[C@@H]1CCCN1C(=O)CS)C(N)=O | – | 246 |
| NC(=O)[C@H](CC(=O)O)NC(=O)[C@@H]1CCCN1C(=O)CS | Not Active | – |

| SMILES | Ki | Ki (read-out: Ki) [µM] |
| --- | --- | --- |
| NC(=O)C[C@H](NC(=O)CS)C(=O)N[C@@H](CC(=O)O)C(N)=O | Not Active | – |
| N=C(N)NCCC[C@H](NC(=O)[C@@H]1CCCN1C(=O)CS)C(N)=O | – | 56 |
| NC(=O)[C@H](Cc1c[nH]c2ccccc12)NC(=O)[C@@H]1CCCN1C(=O)CS | – | 562 |
| CC(C)[C@H](NC(=O)[C@H](Cc1ccccc1)NC(=O)CS)C(N)=O | – | 11 |
| CC(C)C[C@H](NC(=O)[C@H](Cc1ccccc1)NC(=O)CS)C(N)=O | – | 645 |
| N=C(N)NCCC[C@H](NC(=O)[C@H](CCCCN)NC(=O)CS)C(N)=O | Not Active | – |
| NCCCC[C@H](NC(=O)CS)C(=O)N[C@@H](Cc1ccccc1)C(N)=O | – | 126 |
| NCCCC[C@H](NC(=O)[C@H](Cc1ccccc1)NC(=O)CS)C(N)=O | – | 76 |
| CC(C)C[C@H](NC(=O)[C@H](Cc1c[nH]c2ccccc12)NC(=O)CS)C(N)=O | – | 3.7 |
| NC(=O)[C@H](Cc1ccccc1)NC(=O)[C@H](CS)NC(=O)CS | – | 131 |
| NC(=O)[C@H](Cc1c[nH]c2ccccc12)NC(=O)[C@H](CS)NC(=O)CS | – | 108 |
| CC(C)C[C@H](NC(=O)[C@H](CS)NC(=O)CS)C(N)=O | Not Active | – |
| NCCCC[C@H](NC(=O)CS)C(=O)N[C@@H](CC(=O)O)C(N)=O | – | 971 |
| CC[C@@H](C)[C@H](NC(=O)CS)C(=O)N[C@@H](CCCNC(=N)N)C(N)=O | Not Active | – |
| N=C(N)NCCC[C@H](NC(=O)[C@H](Cc1c[nH]cn1)NC(=O)CS)C(N)=O | Not Active | – |
| N=C(N)NCCC[C@H](NC(=O)[C@H](CC(N)=O)NC(=O)CS)C(N)=O | – | 280 |
| NC(=O)C[C@H](NC(=O)CS)C(=O)N[C@@H](Cc1c[nH]c2ccccc12)C(N)=O | – | 70 |
| CC(C)[C@H](NC(=O)[C@H](CC(N)=O)NC(=O)CS)C(N)=O | – | 180 |
| CC[C@@H](C)[C@H](NC(=O)CS)C(=O)N[C@@H](Cc1ccccc1)C(N)=O | Not Active | – |
| NC(=O)[C@H](CC(=O)O)NC(=O)[C@H](CO)NC(=O)CS | Not Active | – |
| CC(C)C[C@H](NC(=O)[C@H](CCCCN)NC(=O)CS)C(N)=O | – | 123 |
| NC(=O)CC[C@H](NC(=O)CS)C(=O)N[C@@H](CC(=O)O)C(N)=O | Not Active | – |
| NC(=O)[C@H](CC(=O)O)NC(=O)[C@H](CS)NC(=O)CS | Not Active | – |
| NCCCC[C@H](NC(=O)[C@H](CC(N)=O)NC(=O)CS)C(N)=O | – | 289 |
| NC(=O)CC[C@H](NC(=O)CS)C(=O)N[C@@H](Cc1ccccc1)C(N)=O | Not Active | – |
